In BindingDB's records for patent US20260028337 (Shenzhen Zhongge Biological Technology, 2026) one finds IC50 data, which are given here for 1 compound.

In this test the target is T1, Interleukin-1 receptor-associated kinase 4 (Homo sapiens, UniProt Q9NWZ3).
T1 sequence (Q9NWZ3 whole entry): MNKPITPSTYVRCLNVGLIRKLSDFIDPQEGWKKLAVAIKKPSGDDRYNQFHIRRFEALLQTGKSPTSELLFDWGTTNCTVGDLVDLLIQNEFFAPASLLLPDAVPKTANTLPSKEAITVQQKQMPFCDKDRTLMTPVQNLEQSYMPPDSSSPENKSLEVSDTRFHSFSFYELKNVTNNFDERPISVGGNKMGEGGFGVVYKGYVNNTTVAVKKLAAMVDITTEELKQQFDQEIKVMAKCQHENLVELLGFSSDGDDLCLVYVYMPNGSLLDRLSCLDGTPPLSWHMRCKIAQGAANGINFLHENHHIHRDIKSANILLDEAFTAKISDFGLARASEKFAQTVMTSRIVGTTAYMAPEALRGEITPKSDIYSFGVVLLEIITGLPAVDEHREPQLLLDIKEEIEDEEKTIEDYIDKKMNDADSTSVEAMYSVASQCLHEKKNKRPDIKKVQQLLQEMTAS
Kind of test: IRAK4 Kinase Inhibition Assay. On the procedure: In this assay, Cisbio HTRF KinEASE-STK SI kit (62S 1 PEB) was used, in which assay/detection buffer, STK Substrate 1-biotin, Streptavidin-XL665, STK Antibody-Cryptate were contained. After adding compound/DMSO to a 384-well plate (PerkinElmer 6008280) using Echo 665, 5 μL of 2-fold reaction concentration of IRAK4 kinase protein (final concentration: 10 nM) dissolved with assay buffer [1 volume of 5× kinase buffer+20 mM magnesium chloride (Sigma) solution+1 mM DTT (Alfa Aesar) solution+4 volumes deionized water] was added, followed by sealing the shallow well plate, shaking and then centrifuging at 1000 rpm for 1 min, and incubating at room temperature for 5 min; then 5 μL of 2-fold reaction concentration of a 1:1 mixture of STK Substrate 1-biotin (final concentration: 1 μM) and ATP (Sigma A1852) (final concentration: 200 μM) formulated with assay buffer was added, followed by sealing the shallow well plate, shaking and then centrifuging at 1000 rpm for 1 min, and incubating at 37° C. for 2 h, and then 10 μL of a 1:1 mixture of Streptavidin-XL665 (final concentration: 62.5 nM) and STK-antibody-cryptate dissolved with detection buffer was added, followed by sealing the shallow well plate, shaking and then centrifuging at 1000 rpm for 1 min, and incubating at room temperature for 1 h, and thereafter reading the value at the wavelength of 620 nm/665 nm using a microplate reader.

A value given as a limit tells only on which side of the number the result lay.

For `OCC1CCC(n2cc(-n3cc(-c4cnn5ccc(C6CCOC6)nc45)nn3)c(C(F)F)n2)CC1` (stereo unspecified) [US20260028337, Compound 98A], the IC50 was less than 0.1 µM.
